Patent publication US20110166196A1, “TREATMENT AND PROPHYLAXIS OF EPILEPSY AND FEBRILE SEIZURES” (priority 2008, published 2011)

Legend:
[1] = system: excitatory synapses on interneurons; test: Drug-induced depression of EPSC amplitudes in slices from TRPV1-/- and C57BL/6 wild-type mice; format: cell-based, mouse; details: capsaicin 1 μM
Excerpt: The basic methods have been detailed previously (McMahon and Kauer, 1997). Sprague-Dawley rats (15-22 days old) were used in the majority of experiments. In addition, we used TRPV1^−/− mice (Caterina et al., 2000) and wild-type C57BL/6 mice aged between 15 and 21 days (Jackson Laboratory). The TRPV1^−/− mice we used have been backcrossed at least 10 times onto a C57BL/6 background and were obtained from homozygous breeding pairs. Control mice were therefore not littermates but were age-matched, wild-type C57BL/6 animals received from the same supplier in the same shipment. All animal protocols were approved by the Brown University Institutional Animal Care and Use Committee. For mouse experiments, only one brain slice per mouse was used for each experiment, so that reported ‘n’ numbers represent the number of animals. Animals were anaesthetized using halothane or isoflurane and quickly decapitated. […]
Slices were continuously perfused with ACSF warmed to 28-32° C. at a flow rate of 1-2 ml/min. […] EPSCs were stimulated at 0.1 Hz (100 μsec) using a bipolar stainless steel stimulating electrode placed in stratum radiatum at least 200 μm from the recorded cell. […] In early experiments, we measured rectification ratios of EPSCs evoked at +40 mV/−60 mV in the presence of 50 μM D-AP5, measured at the time of peak inward synaptic current seen at −70 mV (Lei and McBain, 2004).
The maximal initial slope of fEPSPs was calculated using a LabVIEW-based program (National Instruments). The peak amplitude of each EPSC was measured by comparing a 10 msec time period immediately prior to the stimulus with the peak of the EPSC using this program as well. Occasionally polysynaptic responses were evoked, and in these cases, only the initial monosynaptic event was measured. To positively identify LTD, EPSCs measured every 10 seconds were averaged in 1 minute intervals. […]

TRPV1 channels = target: T1, TRPV1 channels (Mus musculus, UniProt Q704Y3); test: Heat-ramp evoked inward current and depolarization in CA1 pyramidal neurons of wild-type mice; format: cell-based
T1 construct: whole-cell recordings from acutely prepared brain slices from wild type C57BL/6 mice; from tissue; host or cells: acute coronal hippocampal slices from P14-P20 wild-type C57BL/6 mice: CA1 pyramidal neurons
T1 sequence (Q704Y3 whole entry): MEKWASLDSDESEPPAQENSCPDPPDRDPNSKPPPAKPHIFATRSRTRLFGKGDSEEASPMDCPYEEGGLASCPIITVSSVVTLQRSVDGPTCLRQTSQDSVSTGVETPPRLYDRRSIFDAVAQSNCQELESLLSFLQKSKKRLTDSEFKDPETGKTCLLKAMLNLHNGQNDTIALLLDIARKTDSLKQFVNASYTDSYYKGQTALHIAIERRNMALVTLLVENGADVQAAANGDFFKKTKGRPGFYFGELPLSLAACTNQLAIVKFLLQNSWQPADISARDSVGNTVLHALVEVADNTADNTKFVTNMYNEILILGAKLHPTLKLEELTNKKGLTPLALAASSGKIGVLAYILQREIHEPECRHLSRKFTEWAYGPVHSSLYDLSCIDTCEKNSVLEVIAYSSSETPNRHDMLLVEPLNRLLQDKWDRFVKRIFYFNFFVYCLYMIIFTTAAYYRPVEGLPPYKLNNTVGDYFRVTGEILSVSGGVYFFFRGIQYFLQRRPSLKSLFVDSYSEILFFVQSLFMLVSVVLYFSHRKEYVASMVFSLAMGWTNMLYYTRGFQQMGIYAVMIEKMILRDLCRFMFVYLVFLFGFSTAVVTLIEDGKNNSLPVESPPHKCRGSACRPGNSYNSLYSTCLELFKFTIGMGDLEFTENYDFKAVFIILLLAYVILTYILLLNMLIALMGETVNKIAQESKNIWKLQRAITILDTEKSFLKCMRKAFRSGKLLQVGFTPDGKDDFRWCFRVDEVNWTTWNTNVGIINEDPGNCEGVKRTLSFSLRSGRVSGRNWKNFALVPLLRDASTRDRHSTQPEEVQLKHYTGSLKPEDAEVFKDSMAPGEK

Structure (SMILES)	EPSC amplitudes after 10-15 minutes in capsaicin in C57BL/6 wild-type mice ([1]; C57BL/6 wild-type mice, n=6)	EPSC amplitudes after 10-15 minutes in capsaicin in TRPV1−/− mice ([1]; TRPV1−/− mice, n=8)	heat-induced change of membrane potential in CA1 neurons (TRPV1 channels; 2 μM intracellular capsazepine, current clamp, ramp 30 to 42° C., absence 19.7±4.5 mV, n=6) [mV]	effect on heat-evoked current in CA1 pyramidal neuron (TRPV1 channels; bath-applied capsazepine 10 μM, voltage clamp, heat ramp)
COc1cc(CNC(=O)CCCCC=CC(C)C)ccc1O [capsaicin, 8-methyl-N-vanillyl-6-nonenamide]	50.5±12.1 % of pre-drug control values	100.7±6.6 % of pre-drug control values	–	–
Oc1cc2c(cc1O)CN(C(=S)NCCc1ccc(Cl)cc1)CCC2 [capsazepine]	–	–	1.0±0.7	blocked
